According to PubChem BioAssay (NCI):
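Exposure lasted 48 hours, with cells grown in 96-well plates and compounds tested at five concentrations. GI50: concentration for 50% inhibition of growth. TGI marks complete inhibition of growth.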

Columns and labels:
Assay in all cases: NCI tumour cell line growth inhibition, 48 h
[1] = test system: 786-0 renal
[2] = test system: A498 renal
[3] = test system: A549 NSCLC
[4] = test system: ACHN renal
[5] = test system: BT-549 breast
[6] = test system: CAKI-1 renal
[7] = test system: CCRF-CEM leukemia
[8] = test system: COLO 205 colon
[9] = test system: DU-145 prostate
[10] = test system: HCC-2998 colon
[11] = test system: HCT-116 colon
[12] = test system: HCT-15 colon
[13] = test system: HL-60(TB) leukemia
[14] = test system: HOP-62 NSCLC
[15] = test system: HOP-92 NSCLC
[16] = test system: HS 578T breast
[17] = test system: HT29 colon
[18] = test system: IGROV1 ovarian
[19] = test system: K-562 leukemia
[20] = test system: KM12 colon
[21] = test system: LOX IMVI melanoma
[22] = test system: M14 melanoma
[23] = test system: MALME-3M melanoma
[24] = test system: MCF7 breast
[25] = test system: MDA-MB-231 breast
[26] = test system: MDA-MB-435
[27] = test system: MOLT-4 leukemia
[28] = test system: NCI-H226 lung
[29] = test system: NCI-H23 lung
[30] = test system: NCI-H460 lung
[31] = test system: NCI-H522 lung
[32] = test system: NCI/ADR-RES ovarian
[33] = test system: OVCAR-3 ovarian
[34] = test system: OVCAR-4 ovarian
[35] = test system: OVCAR-5 ovarian
[36] = test system: OVCAR-8 ovarian
[37] = test system: PC-3 prostate
[38] = test system: RPMI-8226 leukemia
[39] = test system: RXF 393 renal
[40] = test system: SF-268 CNS
[41] = test system: SF-295 CNS
[42] = test system: SF-539 CNS
[43] = test system: SK-MEL-2 melanoma
[44] = test system: SK-MEL-28 melanoma
[45] = test system: SK-MEL-5 melanoma
[46] = test system: SK-OV-3 ovarian
[47] = test system: SN12C renal
[48] = test system: SNB-19 CNS
[49] = test system: SNB-75 CNS
[50] = test system: SR leukemia
[51] = test system: SW-620 colon
[52] = test system: T-47D breast
[53] = test system: TK-10 renal
[54] = test system: U251 CNS
[55] = test system: UACC-257 melanoma
[56] = test system: UACC-62 melanoma
[57] = test system: UO-31 renal
[58] = test system: EKVX NSCLC

## Cn1cc(C2=C(N3CCOCC3)C(=O)NC2=O)c2ccccc21
[1]
  GI50: > 25 µM
  TGI: > 25 µM
[2]
  GI50: > 25 µM
  TGI: > 25 µM
[3]
  GI50: > 25 µM
  TGI: > 25 µM
[4]
  GI50: > 25 µM
  TGI: > 25 µM
[5]
  GI50: > 25 µM
  TGI: > 25 µM
[6]
  GI50: > 25 µM
  TGI: > 25 µM
[7]
  GI50: > 25 µM
  TGI: > 25 µM
[8]
  GI50: > 25 µM
  TGI: > 25 µM
[9]
  GI50: > 25 µM
  TGI: > 25 µM
[10]
  GI50: > 25 µM
  TGI: > 25 µM
[11]
  GI50: > 25 µM
  TGI: > 25 µM
[12]
  GI50: > 25 µM
  TGI: > 25 µM
[13]
  GI50: > 25 µM
  TGI: > 25 µM
[14]
  GI50: > 25 µM
  TGI: > 25 µM
[15]
  GI50: 14.7 µM
  TGI: > 25 µM
[16]
  GI50: > 25 µM
  TGI: > 25 µM
[17]
  GI50: > 25 µM
  TGI: > 25 µM
[18]
  GI50: > 25 µM
  TGI: > 25 µM
[19]
  GI50: > 25 µM
  TGI: > 25 µM
[20]
  GI50: > 25 µM
  TGI: > 25 µM
[21]
  GI50: > 25 µM
  TGI: > 25 µM
[22]
  GI50: > 25 µM
  TGI: > 25 µM
[23]
  GI50: > 25 µM
  TGI: > 25 µM
[24]
  GI50: > 25 µM
  TGI: > 25 µM
[25]
  GI50: > 25 µM
  TGI: > 25 µM
[26]
  GI50: > 25 µM
  TGI: > 25 µM
[27]
  GI50: > 25 µM
  TGI: > 25 µM
[28]
  GI50: > 25 µM
  TGI: > 25 µM
[29]
  GI50: > 25 µM
  TGI: > 25 µM
[30]
  GI50: > 25 µM
  TGI: > 25 µM
[31]
  GI50: > 25 µM
  TGI: > 25 µM
[32]
  GI50: > 25 µM
  TGI: > 25 µM
[33]
  GI50: > 25 µM
  TGI: > 25 µM
[34]
  GI50: > 25 µM
  TGI: > 25 µM
[35]
  GI50: > 25 µM
  TGI: > 25 µM
[36]
  GI50: > 25 µM
  TGI: > 25 µM
[37]
  GI50: > 25 µM
  TGI: > 25 µM
[38]
  GI50: > 25 µM
  TGI: > 25 µM
[39]
  GI50: > 25 µM
  TGI: > 25 µM
[40]
  GI50: > 25 µM
  TGI: > 25 µM
[41]
  GI50: > 25 µM
  TGI: > 25 µM
[42]
  GI50: > 25 µM
  TGI: > 25 µM
[43]
  GI50: > 25 µM
  TGI: > 25 µM
[44]
  GI50: > 25 µM
  TGI: > 25 µM
[45]
  GI50: > 25 µM
  TGI: > 25 µM
[46]
  GI50: > 25 µM
  TGI: > 25 µM
[47]
  GI50: > 25 µM
  TGI: > 25 µM
[48]
  GI50: > 25 µM
  TGI: > 25 µM
[49]
  GI50: > 25 µM
  TGI: > 25 µM
[50]
  GI50: > 25 µM
  TGI: > 25 µM
[51]
  GI50: > 25 µM
  TGI: > 25 µM
[52]
  GI50: > 25 µM
  TGI: > 25 µM
[53]
  GI50: > 25 µM
  TGI: > 25 µM
[54]
  GI50: > 25 µM
  TGI: > 25 µM
[55]
  GI50: > 25 µM
  TGI: > 25 µM
[56]
  GI50: > 25 µM
  TGI: > 25 µM
[57]
  GI50: > 25 µM
  TGI: > 25 µM

## CC1=NN(c2nc(N)nc(/C=C\c3ccc([N+](=O)[O-])s3)n2)C(C)(C)C1
[1]
  GI50: > 100 µM
  TGI: > 100 µM
[3]
  GI50: > 100 µM
  TGI: > 100 µM
[4]
  GI50: > 100 µM
  TGI: > 100 µM
[5]
  GI50: > 100 µM
  TGI: > 100 µM
[6]
  GI50: > 100 µM
  TGI: > 100 µM
[7]
  GI50: 77.5 µM
  TGI: > 100 µM
[8]
  GI50: > 100 µM
  TGI: > 100 µM
[9]
  GI50: > 100 µM
  TGI: > 100 µM
[58]
  GI50: > 100 µM
  TGI: > 100 µM
[10]
  GI50: > 100 µM
  TGI: > 100 µM
[11]
  GI50: > 100 µM
  TGI: > 100 µM
[12]
  GI50: > 100 µM
  TGI: > 100 µM
[13]
  GI50: > 100 µM
  TGI: > 100 µM
[14]
  GI50: > 100 µM
  TGI: > 100 µM
[15]
  GI50: > 100 µM
  TGI: > 100 µM
[16]
  GI50: > 100 µM
  TGI: > 100 µM
[17]
  GI50: 56.4 µM
  TGI: > 100 µM
[18]
  GI50: > 100 µM
  TGI: > 100 µM
[19]
  GI50: 40.9 µM
  TGI: > 100 µM
[20]
  GI50: > 100 µM
  TGI: > 100 µM
[21]
  GI50: > 100 µM
  TGI: > 100 µM
[22]
  GI50: > 100 µM
  TGI: > 100 µM
[23]
  GI50: > 100 µM
  TGI: > 100 µM
[24]
  GI50: > 100 µM
  TGI: > 100 µM
[25]
  GI50: > 100 µM
  TGI: > 100 µM
[26]
  GI50: 62.8 µM
  TGI: > 100 µM
[27]
  GI50: > 100 µM
  TGI: > 100 µM
[28]
  GI50: > 100 µM
  TGI: > 100 µM
[29]
  GI50: > 100 µM
  TGI: > 100 µM
[30]
  GI50: > 100 µM
  TGI: > 100 µM
[31]
  GI50: > 100 µM
  TGI: > 100 µM
[32]
  GI50: > 100 µM
  TGI: > 100 µM
[33]
  GI50: > 100 µM
  TGI: > 100 µM
[34]
  GI50: > 100 µM
  TGI: > 100 µM
[35]
  GI50: > 100 µM
  TGI: > 100 µM
[36]
  GI50: > 100 µM
  TGI: > 100 µM
[37]
  GI50: > 100 µM
  TGI: > 100 µM
[38]
  GI50: > 100 µM
  TGI: > 100 µM
[39]
  GI50: > 100 µM
  TGI: > 100 µM
[40]
  GI50: > 100 µM
  TGI: > 100 µM
[41]
  GI50: > 100 µM
  TGI: > 100 µM
[42]
  GI50: > 100 µM
  TGI: > 100 µM
[43]
  GI50: > 100 µM
  TGI: > 100 µM
[44]
  GI50: > 100 µM
  TGI: > 100 µM
[45]
  GI50: 40.9 µM
  TGI: > 100 µM
[46]
  GI50: > 100 µM
  TGI: > 100 µM
[47]
  GI50: > 100 µM
  TGI: > 100 µM
[48]
  GI50: > 100 µM
  TGI: > 100 µM
[49]
  GI50: 29.9 µM
  TGI: > 100 µM
[50]
  GI50: 49.9 µM
  TGI: > 100 µM
[51]
  GI50: > 100 µM
  TGI: > 100 µM
[52]
  GI50: > 100 µM
  TGI: > 100 µM
[53]
  GI50: > 100 µM
  TGI: > 100 µM
[54]
  GI50: > 100 µM
  TGI: > 100 µM
[55]
  GI50: > 100 µM
  TGI: > 100 µM
[56]
  GI50: > 100 µM
  TGI: > 100 µM
[57]
  GI50: > 100 µM
  TGI: > 100 µM
